In patent US5543422A, “Heterocyclic amines” (British Technology Group Limited, priority 1992, dated 1996):
Where a name gives a salt, the structure may show the parent alone.

System: not listed separately
Experiment: base strength (pka) of the terminal amine
Assay type: physicochemical
Conditions: Table 5, terminal amine
Work on `NCCCCOc1cccc2ccccc12` [NH2] yielded a pKa of 10.6. For `c1ccc2c(OCCCCn3ccnc3)cccc2c1` [imidazole], the pKa was 7.33. Molecule `c1ccc2c(OCCCCN3CCCC3)cccc2c1` [pyrrolidine, N-4-(naphth-1-yloxy)butylpyrrolidine] has a pKa of 10.3. `c1ccc2c(OCCCCN3CCOCC3)cccc2c1` [α 4 0] showed a pKa of 7.41. Molecule `c1ccc2c(OCCCCN3CCCCC3)cccc2c1` [α 4 CH2, -4-(naphth-1-yloxy)butylpiperidine oxalate] has a pKa of 10.1.

Biological target: T1, calmodulin (Bos taurus, UniProt P62157)
T1 construct: a sufficient amount of bovine brain calmodulin; from tissue; host or cells: bovine brain (calmodulin); bovine heart (PDE)
Experiment: inhibition of calmodulin activation of cyclic nucleotide phosphodiesterase (PDE), hydrolysis of [3H] cAMP
Assay type: biochemical, bovine
Conditions: Table 1; mean ± S.E. of three assays; * (β CHCH 4 6) mean of two; read-out: IC50 in μM (x ± SE)
With `c1ccc2c(OCCCCCN3CCCCC3)cccc2c1` [α 5 CH2] the IC50 was 39.1 ± 8.9 µM. For `c1ccc2cc(SCCCCCN3CCCCC3)ccc2c1` [β 5 piperdine], the IC50 was 22.1 ± 3 µM. `C(=Cc1ccc2ccccc2c1)CCCCN1CCCCC1` [β CHCH 4 6, N-6-(naphth-2-yl)hex-5-enylpiperidine oxalate] gave an IC50 of 2.2 ± 0.3 µM.

Same assay, conditions: Table 2; mean ± S.E. of three assays; * (α 3 CH2, β 2 CH2, β 3 CH2, α 3 0, β 2 0) mean of two; read-out: IC50 in μM (x ± SE)
For `c1ccc2c(OCCN3CCOCC3)cccc2c1` [α 2 0], the IC50 was over 250 µM. With `c1ccc2c(OCCN3CCCCC3)cccc2c1` [α 2 CH2] the IC50 was 152 ± 18.8 µM. For `c1ccc2c(OCCCN3CCOCC3)cccc2c1` [α 3 0], the IC50 was 217 ± 24.7 µM. `c1ccc2c(OCCCN3CCCCC3)cccc2c1` [α 3 CH2] showed an IC50 of 106 ± 18 µM. In the case of `c1ccc2c(OCCCCN3CCOCC3)cccc2c1` [α 4 0], the IC50 is reported as 53.2 ± 10.5 µM. Molecule `c1ccc2c(OCCCCN3CCCCC3)cccc2c1` [α 4 CH2, -4-(naphth-1-yloxy)butylpiperidine oxalate] has an IC50 of 7.4 ± 0.5 µM. Molecule `c1ccc2c(OCCCCCN3CCOCC3)cccc2c1` [α 5 0] has an IC50 of 42.3 ± 9.1 µM. `c1ccc2c(OCCCCCCN3CCCCC3)cccc2c1` [α 6 CH2] showed an IC50 of 28.5 ± 2 µM. Molecule `c1ccc2c(OCCCCCCCN3CCCCC3)cccc2c1` [α 7 CH2, N-7-(naphth-1-yloxy)heptylpiperidine hydrochloride] has an IC50 of 4.7 ± 0.3 µM. Molecule `c1ccc2c(OCCCCCCCCN3CCCCC3)cccc2c1` [α 8 CH2] has an IC50 of 5.3 ± 0.3 µM. `c1ccc2cc(OCCN3CCOCC3)ccc2c1` [β 2 0] gave an IC50 of over 250 µM. `c1ccc2cc(OCCN3CCCCC3)ccc2c1` [β 2 CH2] gave an IC50 of over 250 µM. Work on `c1ccc2cc(OCCCN3CCOCC3)ccc2c1` [β 3 0] yielded an IC50 of over 250 µM. Work on `c1ccc2cc(OCCCN3CCCCC3)ccc2c1` [β 3 CH2] yielded an IC50 of 29.2 ± 1.4 µM. Work on `c1ccc2cc(OCCCCN3CCOCC3)ccc2c1` [β 4 0] yielded an IC50 of 85.6 ± 7 µM. For `c1ccc2cc(OCCCCN3CCCCC3)ccc2c1` [β 4 CH2], the IC50 was 55.8 ± 6 µM. Molecule `c1ccc2cc(OCCCCCN3CCOCC3)ccc2c1` [β 5 0] has an IC50 of 72.7 ± 9.4 µM. With `c1ccc2cc(OCCCCCN3CCCCC3)ccc2c1` [β 5 CH2] the IC50 was 53.9 ± 1.6 µM.

Same assay, conditions: Table 3; mean ± S.E. of three assays; * (β 6 piperdine) mean of two; read-out: IC50 in μM (x ± SE)
For `c1ccc2c(SCCCCN3CCCCC3)cccc2c1` [α 4 piperdine], the IC50 was 23.6 ± 1.6 µM. Molecule `c1ccc2cc(SCCCN3CCCCC3)ccc2c1` [β 3 piperdine] has an IC50 of 77.7 ± 4.1 µM. Molecule `c1ccc2cc(SCCCCN3CCCCC3)ccc2c1` [β 4 piperdine] has an IC50 of 12.3 ± 2.6 µM. `c1ccc2cc(SCCCCN3CCCC3)ccc2c1` [β 4 pyrrolidine] showed an IC50 of 18 ± 1.3 µM. `c1ccc2cc(SCCCCCN3CCOCC3)ccc2c1` [β 5 morpholine] gave an IC50 of 20.1 ± 2.25 µM. In the case of `c1ccc2cc(SCCCCCCN3CCCCC3)ccc2c1` [β 6 piperdine], the IC50 is reported as 12.5 ± 1.5 µM.

Same assay, conditions: Table 4, heteroatoms in the side chain; mean ± S.E.; read-out: IC50 in μM (x ± SE)
`c1ccc2c(OCCSCCN3CCCCC3)cccc2c1` gave an IC50 of 41.7 ± 6.2 µM. `c1ccc2c(CCNCCCCCN3CCCCC3)cccc2c1` gave an IC50 of 11.5 ± 1.6 µM.

Same assay, conditions: Table 5, effect of base strength of the terminal amine; mean ± S.E.; read-out: IC50 in μM (x ± S.E.)
In the case of `NCCCCOc1cccc2ccccc12` [NH2], the IC50 is reported as 3.85 ± 0.2 µM. `c1ccc2c(OCCCCn3ccnc3)cccc2c1` [imidazole] showed an IC50 of 68.3 ± 6.7 µM. Work on `c1ccc2c(OCCCCN3CCCC3)cccc2c1` [pyrrolidine, N-4-(naphth-1-yloxy)butylpyrrolidine] yielded an IC50 of 4 ± 0.2 µM.

Same assay, conditions: Table 6, halogen substitution on the naphthalene ring; mean ± S.E.; read-out: IC50 in μM (x ± SE)
In the case of `Brc1ccc2cc(OCCCCN3CCCCC3)ccc2c1`, the IC50 is reported as 9.3 ± 2 µM.

Same assay, conditions: Table 7, effect of the aryl moiety; mean ± S.E. of three assays; * (drawing 9 6 pyrrolidine) mean of two; read-out: IC50 in μM (x ± SE)
`Clc1ccc(OCCCCN2CCCCC2)cc1Cl` gave an IC50 of 55.3 ± 10 µM. For `c1cc(OCCCCN2CCCCC2)c2ccsc2c1` [drawing 8 4 piperdine, N-[4-(benzo[b]thien-4-yloxy)butyl]piperidine oxalate], the IC50 was 1.8 ± 0.6 µM. `c1cc(OCCCCN2CCCC2)c2ccsc2c1` [drawing 8 4 pyrrolidine, N-4-(benzo[b]thien-4-yloxy)butylpyrrolidine] showed an IC50 of 0.88 ± 0.14 µM. `c1cc(OCCCCCCN2CCCCC2)c2ccsc2c1` [drawing 8 6 piperdine, N-6-(benzo[b]thien-4-yloxy)hexylpiperidine] gave an IC50 of 0.38 ± 0.1 µM. Molecule `c1cc(OCCCCCCN2CCCC2)c2ccsc2c1` [drawing 8 6 pyrrolidine, N-6-(benzo[b]thien-4-yloxy)hexylpyrrolidine] has an IC50 of 0.22 ± 0.04 µM. With `c1cc(OCCCCN2CCCCC2)c2occc2c1` [drawing 9 4 piperdine] the IC50 was 70.1 ± 8.6 µM. Molecule `c1cc(OCCCCCCN2CCCC2)c2occc2c1` [drawing 9 6 pyrrolidine] has an IC50 of 204 ± 13.3 µM.

Same assay, conditions: various concentrations
For `O=C(O)C(=O)O` [oxalic acid], the “effect on calmodulin-activated PDE” value was “none was found”.

System: calmodulin-independent PDE
Experiment: inhibition of calmodulin-independent activity of PDE
Assay type: biochemical, bovine
Conditions: various concentrations
Protocol: The assay was based on the incubation of calmodulin-deficient bovine heart PDE with [^3 H] cyclic adenosine monophosphate (cAMP), and a sufficient amount of bovine brain calmodulin (12.5 ng/100 μl) to give 70-80% activation of the enzyme. The resultant [^3 H] 5'-AMP formed was hydrolysed to [3H] adenosine upon incubation with the 5'-nucleotidase of the Western Diamondback Rattlesnake (Crotalus atrox). The nucleoside was then separated from the unreacted substrate using anion exchange resin. […] The degree of inhibition of calmodulin-activation of PDE in the presence of a range of drugs was expressed as a percentage of the activity of calmodulin-activated PDE in the absence of any drug. […] To give an indication of any inhibition of PDE by compounds, the activity of PDE in the presence of two concentrations of compound (approximately ten fold difference) were included in the assay. As there was no significant difference in the activity of PDE with or without the drug it was concluded that there was no inhibition of calmodulin-independent PDE by the drugs at the concentrations used. The percentage inhibition recorded for calmodulin-activated PDE was therefore due solely to the action of the drugs on the activity of calmodulin.
For `O=C(O)C(=O)O` [oxalic acid], the “effect on PDE” value was “none was found”.
